From patent US20260008768A1, “UREA DERIVATIVES FOR INHIBITING NLRP3 AND USES THEREOF” (VENTUS THERAPEUTICS U.S., INC., priority 2023, published 2026) come the findings set out here.

A value given as a limit tells only on which side of the number the result lay.

human NLRP3, sequence (Q96P20 whole entry): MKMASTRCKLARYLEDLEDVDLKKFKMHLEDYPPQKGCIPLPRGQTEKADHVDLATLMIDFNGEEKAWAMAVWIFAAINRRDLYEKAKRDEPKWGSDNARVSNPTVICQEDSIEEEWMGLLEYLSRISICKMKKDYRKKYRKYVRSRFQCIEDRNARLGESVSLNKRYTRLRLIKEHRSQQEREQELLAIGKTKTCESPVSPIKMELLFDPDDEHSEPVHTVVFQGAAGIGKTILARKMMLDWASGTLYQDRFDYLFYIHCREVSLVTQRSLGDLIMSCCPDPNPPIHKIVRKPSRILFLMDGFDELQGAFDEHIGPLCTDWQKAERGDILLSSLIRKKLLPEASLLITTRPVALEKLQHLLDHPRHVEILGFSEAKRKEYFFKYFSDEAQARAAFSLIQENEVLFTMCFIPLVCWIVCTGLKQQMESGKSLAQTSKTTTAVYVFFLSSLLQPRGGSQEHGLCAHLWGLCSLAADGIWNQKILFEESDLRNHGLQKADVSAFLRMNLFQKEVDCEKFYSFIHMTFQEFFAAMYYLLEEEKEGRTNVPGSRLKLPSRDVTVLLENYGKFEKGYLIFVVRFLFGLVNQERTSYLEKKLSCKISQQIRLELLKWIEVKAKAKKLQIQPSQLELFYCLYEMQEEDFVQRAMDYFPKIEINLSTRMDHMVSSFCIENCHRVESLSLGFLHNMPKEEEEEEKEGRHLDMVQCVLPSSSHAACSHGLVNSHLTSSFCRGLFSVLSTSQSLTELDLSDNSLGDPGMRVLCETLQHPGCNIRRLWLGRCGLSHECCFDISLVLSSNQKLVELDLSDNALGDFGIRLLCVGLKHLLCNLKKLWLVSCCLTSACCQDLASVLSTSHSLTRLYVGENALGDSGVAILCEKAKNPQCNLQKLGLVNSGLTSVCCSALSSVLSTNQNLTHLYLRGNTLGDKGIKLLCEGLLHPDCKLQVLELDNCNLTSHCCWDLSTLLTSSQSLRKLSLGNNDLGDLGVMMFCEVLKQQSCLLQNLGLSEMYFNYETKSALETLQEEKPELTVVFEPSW

This experiment addresses human NLRP3 (Homo sapiens, UniProt Q96P20). The experiment in a line: Scintillation Proximity (SPA) NLRP3 Assay, displacement of 3H-MCC950. Type of experiment: binding. The note with it: Table B, activity class; displacement of 3H-MCC950 from human NLRP3. The protocol:
Improved NLRP3 binding correlates with increased affinity for NLRP3 protein and, by extension, increased ability to interfere with its function.
SPA experiments were conducted in a total volume of 20 μL assay buffer containing 20 mM HEPES pH 7.5, 150 mM NaCl, 5 mM MgCl2, 0.01% (v/v) Tween-20, 0.01% (w/v) bovine serum albumin (BSA) and 100 μM of adenosine diphosphate (ADP). A human NLRP3 protein (350 nM) (see, e.g., Sharif et al., Nature (2019) 570:338-343; Hochheiser et al., Nature (2022) 604:184-189; Adreeva et al., Cell (2021) 184:6299-6312; Wang et al., J Exp. Med. (2021) 219:e20211147) was incubated with various concentration of compounds in 5% dimethyl sulfoxide (DMSO) final for 15 minutes at room temperature in a white half-area 96 well OptiPlate (PerkinElmer #6002290) before adding 125 nM final of 3H-MCC950. After the addition of radiolabeled MCC950, the plate was incubated for 60 minutes at room temperature before adding 0.25 mg/ml of copper-coated polyvinyltoluene SPA beads (PerkinElmer #RPNQ0095). The plate was then transferred to a microplate counter (PerkinElmer 2450 Microbeta) to collect binding data. Binding data was analyzed 6 hrs post-PVT bead addition to allow sufficient time to reach equilibrium. Specific binding was calculated from averaged duplicates by subtracting signal from wells without NLRP3 protein.
SPA NLRP3 IC50 assay results are provided in Table B. “A” activity=<1 uM; “B” activity=1-10 uM; “C” activity=>10-50 uM; “D” activity=>50 uM-100 uM; and “E” activity=>100 uM.
On the technique in general: Scintillation proximity formats need no separation of bound from free tracer.
As to `C[C@@H]1CCN(c2nnn[nH]2)C[C@@H](NC(=O)N(C)c2ccc(Cl)cc2Cl)C1` (single isomer, unassigned) [7B*], the IC50 fell in the range of 1 to 10 µM. The same measure for `C[C@@H]1C[C@H](NC(=O)N(C)c2ccc(C3CC3)c(F)c2)[C@H]2CC[C@@H]1N2c1nnn[nH]1` (single isomer, unassigned) [54B*]: greater than 100 µM; for `C[C@H]1C[C@H](NC(=O)N(C)c2ccc(OC(F)(F)F)c(OC(F)F)c2)[C@@H]2CC[C@H]1N2c1nnn[nH]1` (single isomer, unassigned) [63D*]: 50 to 100 µM. Then `C[C@H]1CCN(c2nnn[nH]2)C[C@H](NC(=O)N(C)c2ccc(C(F)(F)F)cc2F)C1` (single isomer, unassigned) [13C*], with greater than 100 µM; and `C[C@H]1CCN(c2nnn[nH]2)C[C@H](NC(=O)N(C)c2ccc(Cl)c(F)c2)C1` (single isomer, unassigned) [12C*], with 10 to 50 µM; and `C[C@H]1CCN(c2nnn[nH]2)C[C@@H](NC(=O)N(C)c2ccc(C(F)(F)F)cc2F)C1` (single isomer, unassigned) [13D*], with 1 to 10 µM. Then `C[C@H]1C[C@@H](NC(=O)N(C)c2ccc(C(F)F)c(F)c2)[C@@H]2CC[C@H]1N2c1nnn[nH]1` (single isomer, unassigned) [53C*], with greater than 100 µM; and `C[C@@H]1C[C@H](NC(=O)N(C)c2c(F)cc(C3CC3)cc2F)[C@H]2CC[C@@H]1N2c1nnn[nH]1` (single isomer, unassigned) [60B*], with greater than 100 µM; and `C[C@H]1CCN(c2nnn[nH]2)C[C@@H](NC(=O)N(C)c2cnc(C(F)(F)F)nc2)C1` (single isomer, unassigned) [31D*], with 10 to 50 µM. In turn, `C[C@H]1CCN(c2nnn[nH]2)C[C@H](NC(=O)N(C)c2c(F)cc(OC(F)(F)F)cc2F)C1` (single isomer, unassigned) [41C*] had an IC50 of 50 to 100 µM. Then `C[C@H]1CCN(c2nnn[nH]2)C[C@@H](NC(=O)N(C)c2ccc(Cl)cc2F)C1` (single isomer, unassigned) [5D*], with 1 to 10 µM; and `C[C@H]1C[C@@H](NC(=O)N(C)c2ccc(C3CC3)c(F)c2)[C@@H]2CC[C@H]1N2c1nnn[nH]1` (single isomer, unassigned) [54C*], with greater than 100 µM; and `C[C@H]1C[C@@H](NC(=O)N(C)c2ccc3ocnc3c2)CN(c2nnn[nH]2)C1` [Compound 34A, 1-(benzo[d]oxazol-5-yl)-1-methyl-3-((3R,5S)-5-methyl-1-(1H-tetrazol-5-yl)piperidin-3-yl)urea], with 50 to 100 µM. The same measure for `C[C@@H]1CCN(c2nnn[nH]2)C[C@@H](NC(=O)N(C)c2ccc(C3CC3)cc2)C1` (single isomer, unassigned) [8B*]: 1 to 10 µM. With `C[C@H]1CCN(c2nnn[nH]2)C[C@H](NC(=O)N(C)c2ccc(Cl)cn2)C1` (single isomer, unassigned) [28C*], the IC50 was 50 to 100 µM.

The compound `C[C@@H]1C[C@H](NC(=O)N(C)c2ccc(C(F)(F)F)cc2F)[C@H]2CC[C@@H]1N2c1nnn[nH]1` (single isomer, unassigned) [48B*] yielded an IC50 greater than 100 µM. Then `C[C@H]1C[C@H](NC(=O)N(C)c2ccc(OC(F)F)c(F)c2F)[C@@H]2CC[C@H]1N2c1nnn[nH]1` (single isomer, unassigned) [58D*], with 10 to 50 µM; and `C[C@H]1C[C@H](NC(=O)N(C)c2ccc(OC(F)(F)F)c(F)c2)[C@@H]2CC[C@H]1N2c1nnn[nH]1` (single isomer, unassigned) [51D*], with 10 to 50 µM.

`C[C@H]1CCN(c2nnn[nH]2)C[C@H](NC(=O)N(C)c2ccc(Cl)nc2)C1` (single isomer, unassigned) [29C*] gave an IC50 of 50 to 100 µM. On to `C[C@@H]1CCN(c2nnn[nH]2)C[C@@H](NC(=O)N(C)c2ccc(C(F)F)cc2F)C1` (single isomer, unassigned) [18B*], for which the IC50 is 1 to 10 µM. Then `C[C@H]1CCN(c2nnn[nH]2)C[C@H](NC(=O)N(C)c2ccc(OC(F)F)c(F)c2)C1` (single isomer, unassigned) [15C*], with greater than 100 µM; and `C[C@@H]1CCN(c2nnn[nH]2)C[C@@H](NC(=O)N(C)c2ccc(C(F)(F)F)c(F)c2F)C1` (single isomer, unassigned) [21B*], with 1 to 10 µM. Then `C[C@@H]1CCN(c2nnn[nH]2)C[C@H](NC(=O)N(C)c2ccc(Cl)nc2)C1` (single isomer, unassigned) [29A*], with 1 to 10 µM.

The compound `C[C@H]1CCN(c2nnn[nH]2)C[C@H](NC(=O)N(C)c2ccc(C3CC3)cc2)C1` (single isomer, unassigned) [8C*] came in with an IC50 greater than 100 µM. Then `C[C@@H]1C[C@H](NC(=O)N(C)c2c(F)cc(OC(F)(F)F)cc2F)[C@H]2CC[C@@H]1N2c1nnn[nH]1` (single isomer, unassigned) [62B*], with greater than 100 µM. The compound `C[C@@H]1C[C@H](NC(=O)N(C)c2ccc(C3CC3)cc2)[C@H]2CC[C@@H]1N2c1nnn[nH]1` (single isomer, unassigned) [46B*] showed an IC50 of 50 to 100 µM.

The compound `C[C@H]1CCN(c2nnn[nH]2)C[C@H](NC(=O)N(C)c2ccc(Cl)cc2F)C1` (single isomer, unassigned) [5C*] displayed an IC50 of 50 to 100 µM. Then `C[C@@H]1CCN(c2nnn[nH]2)C[C@@H](NC(=O)N(C)c2ccc(C(F)F)c(F)c2)C1` (single isomer, unassigned) [22B*], with 1 to 10 µM; and `C[C@H]1CCN(c2nnn[nH]2)C[C@@H](NC(=O)Nc2ccc(Cl)cc2F)C1` (single isomer, unassigned) [27D*], with greater than 100 µM.

On to `C[C@@H]1CCN(c2nnn[nH]2)C[C@@H](NC(=O)N(C)c2ccc(C(F)(F)F)nn2)C1` (single isomer, unassigned) [33B*], for which the half-inhibitory concentration (IC50) lay within 50 to 100 µM. Regarding `C[C@H]1CCN(c2nnn[nH]2)C[C@H](NC(=O)N(C)c2c(F)cc(OC(F)F)cc2F)C1` (single isomer, unassigned) [19C*], the half-maximal inhibitory concentration (IC50) is greater than 100 µM. The same measure for `C[C@H]1CCN(c2nnn[nH]2)C[C@H](NC(=O)N(C)c2ccc(OC(F)F)c(F)c2F)C1` (single isomer, unassigned) [40C*]: 10 to 50 µM. Then `C[C@H]1C[C@H](NC(=O)N(C)c2ccc(OC(F)F)cc2)[C@@H]2CC[C@H]1N2c1nnn[nH]1` (single isomer, unassigned) [42D*], with 10 to 50 µM; and `C[C@H]1CCN(c2nnn[nH]2)C[C@@H](NC(=O)N(C)c2ccc(Cl)c(F)c2)C1` (single isomer, unassigned) [12D*], with greater than 100 µM. The same measure for `C[C@H]1C[C@@H](NC(=O)N(C)c2ccc(C(F)F)cc2F)[C@@H]2CC[C@H]1N2c1nnn[nH]1` (single isomer, unassigned) [55C*]: 50 to 100 µM.

Compound `C[C@H]1C[C@@H](NC(=O)N(C)c2ccc(C(F)(F)F)c(F)c2F)[C@@H]2CC[C@H]1N2c1nnn[nH]1` (single isomer, unassigned) [47C*] yielded an IC50 greater than 100 µM.

`C[C@@H]1C[C@H](NC(=O)N(C)c2ccc(OC(F)(F)F)c(F)c2F)[C@H]2CC[C@@H]1N2c1nnn[nH]1` (single isomer, unassigned) [59B*] registered an IC50 of 50 to 100 µM.

With `C[C@H]1CCN(c2nnn[nH]2)C[C@@H](NC(=O)N(C)c2ccc(C(F)(F)F)c(F)c2F)C1` (single isomer, unassigned) [21D*], the IC50 was 1 to 10 µM. The same measure for `C[C@H]1CCN(c2nnn[nH]2)C[C@H](NC(=O)N(C)c2ccc(OC(F)(F)F)c(F)c2)C1` (single isomer, unassigned) [14C*]: greater than 100 µM.

The IC50 is the concentration at which inhibition is half-maximal. The low end stands for greater potency, the high end for weaker potency.
